Assay results as given in publication PMC10057394, “Exploring the Antitubercular Activity of Anthranilic Acid Derivatives: From MabA (FabG1) Inhibition to Intrabacterial Acidification” (Pharmaceuticals, 2023).
Converted amounts (≈) assume the structure as drawn. “Also recorded” adds a separate entry of the source. Where two headings read alike, the source gives them in different places.

Columns and labels:
plasma proteins = assay: Plasma protein binding by rapid equilibrium dialysis; conditions: 10% plasma (diluted 1 to 10 in phosphate buffer), pH 7.2
[1] = system: GFP-expressing M. tuberculosis H37Rv; set-up: method as in PMID 32505086; conditions: Middlebrook 7H9 liquid medium with OADC (contains albumin); 5 days; GFP signal; reported previously; cited from earlier work
Solubility in PBS pH 7.4 = conditions: PBS pH 7.4, pH 7.4, aqueous buffer, kinetic from dmso stock
LogD octanol/PBS pH 7.4 = conditions: octanol/PBS 1/1, pH 7.4
[2] = system: GFP-expressing M. tuberculosis H37Rv; assay: microbe, parasite or virus in culture; format: cell-based; conditions: Mycobacterium tuberculosis
MabA [3] = target: T1, MabA (Mycobacterium tuberculosis, UniProt P9WGT3); assay: MabA LC-MS/MS-based enzymatic assay (reduction of acetoacetyl-CoA into HBCoA); format: biochemical; conditions: for IC50: concentration inhibiting 50% of the transformation of acetoacetyl-CoA in HBCoA in the presence of NADPH, LC-MS/MS
T1 sequence (P9WGT3 whole entry, looked up): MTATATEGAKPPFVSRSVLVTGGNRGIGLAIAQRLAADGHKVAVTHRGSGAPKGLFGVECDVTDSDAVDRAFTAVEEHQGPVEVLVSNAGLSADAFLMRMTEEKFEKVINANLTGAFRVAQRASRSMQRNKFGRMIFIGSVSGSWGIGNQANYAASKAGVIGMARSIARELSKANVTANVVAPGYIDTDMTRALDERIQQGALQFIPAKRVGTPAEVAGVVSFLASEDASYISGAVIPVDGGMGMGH

MabA [4] = target: T1, MabA; format: binding
[5] = Solubility in Sauton medium; format: physicochemical; conditions: aqueous buffer
M. tuberculosis H37Rv = format: cell-based
[6] = system: H37Rv carrying pUV15-pHGFP; format: cell-based, M. tuberculosis; conditions: pH 4.5
H37Rv [7] = format: cell-based, M. tuberculosis
H37Rv [8] = format: cell-based, M. tuberculosis; remark: listed apart in the source

SMILES: O=C(Nc1ccc(I)cc1C(=O)O)c1ccc(Cl)c(Cl)c1 [Compound 1, 2-[(3,4-dichlorobenzoyl)amino]-5-iodo-benzoic acid]
- fraction unbound at 4 h, 10 µM (plasma proteins): 0.0014
- MIC90 [1]: 300 µM (≈ 131 µg/mL)
- solubility at 24 h (Solubility in PBS pH 7.4): > 200 µM
- logD at 2 h (LogD octanol/PBS pH 7.4): 3.4
- MIC90 [2]: 300 µM (≈ 131 µg/mL)
- MIC90 ([2]; 168 h): 100 µM (≈ 43.6 µg/mL)
- IC50 (MabA [3]): 38 ± 6 µM

SMILES: O=C(Nc1ccc(Br)cc1C(=O)O)c1ccc(Cl)c(Cl)c1 [Compound 2, 5-bromo-2-[(3,4-dichlorobenzoyl)amino]benzoic Acid]
- MIC90 [1]: 300 µM (≈ 117 µg/mL)
- solubility at 24 h (Solubility in PBS pH 7.4): 181 µM (≈ 70.4 µg/mL)
- logD at 2 h (LogD octanol/PBS pH 7.4): 3
- MIC90 ([2]; 168 h): 100 µM (≈ 38.9 µg/mL)
- IC50 (MabA [3]): 45 µM

SMILES: O=C(Nc1ccc(I)cc1C(=O)NS(=O)(=O)C(F)(F)F)c1ccc(Cl)c(Cl)c1 [Compound 12, 3,4-dichloro-N-[4-iodo-2-(trifluoromethylsulfonylcarbamoyl)phenyl]benzamide]
- fraction unbound at 4 h, 10 µM (plasma proteins): 0.0002
- solubility at 24 h (Solubility in PBS pH 7.4): 180 µM (≈ 102 µg/mL)
- logD at 2 h (LogD octanol/PBS pH 7.4): 4.1
- MIC90 ([2]; 168 h): 300 µM (≈ 170 µg/mL)
- 19F- and 1H-NMR signal in the presence of MabA (MabA [4]): confirmed the direct binding; also recorded: total disappearance of the signal
- IC50 (MabA [3]): 35 µM

SMILES: CS(=O)(=O)NC(=O)c1cc(I)ccc1NC(=O)c1ccc(Cl)c(Cl)c1 [Compound 13, 3,4-dichloro-N-[4-iodo-2-(methylsulfonylcarbamoyl)phenyl]benzamide]
- IC50 (MabA [3]): 28 µM

SMILES: O=C(Nc1cc2ccccc2cc1C(=O)O)c1ccc(Cl)c(Cl)c1 [Compound 19, 3-[(3,4-dichlorobenzoyl)amino]naphthalene-2-carboxylic Acid]
- IC50 (MabA [3]): 33 µM

SMILES: NC(=O)c1cc(I)ccc1NC(=O)c1ccc(Cl)c(Cl)c1 [Compound 9, N-(2-carbamoyl-4-iodo-phenyl)-3,4-dichloro-benzamide]
- IC50 (MabA [3]): > 500 µM

SMILES: O=C(Nc1cc(-n2cccn2)ccc1C(=O)O)c1ccc(Cl)c(Cl)c1 [Compound 18, 2-[(3,4-dichlorobenzoyl)amino]-4-pyrazol-1-yl-benzoic Acid]
- fraction unbound at 4 h, 10 µM (plasma proteins): < 0.0001
- solubility at 24 h (Solubility in PBS pH 7.4): 149 µM (≈ 56.1 µg/mL)
- solubility [5]: > 300 µM
- logD at 2 h (LogD octanol/PBS pH 7.4): 2.54
- MIC90 ([2]; 168 h): 300 µM (≈ 113 µg/mL)
- improvement of the activity by a factor (MabA [3]): 1.6
- IC50 (MabA [3]): 23 µM
- effect on mycolic acids synthesis (TLC) (M. tuberculosis H37Rv): no specific inhibition of mycolic acids

SMILES: O=C(Nc1ccc(I)cc1-c1nnn[nH]1)c1ccc(Cl)c(Cl)c1 [Compound 11, 3,4-dichloro-N-[4-iodo-2-(1H-tetrazol-5-yl)phenyl]benzamide]
- IC50 (MabA [3]): 24 µM

SMILES: O=C(Nc1cc(Br)ccc1C(=O)O)c1ccc(Cl)c(Cl)c1 [Compound 14, 4-bromo-2-[(3,4-dichlorobenzoyl)amino]benzoic Acid]
- IC50 (MabA [3]): 34 µM

SMILES: CN(C(=O)c1ccc(Cl)c(Cl)c1)c1ccc(I)cc1C(=O)O [Compound 3, 2-[(3,4-dichlorobenzoyl)-methyl-amino]-5-iodo-benzoic Acid]
- IC50 (MabA [3]): > 200 µM

SMILES: CCc1cc(C(N)=S)ccn1 [ethionamide, reference compound]
- MIC ([2]; 168 h): 2 µg/mL (≈ 12 µM)

SMILES: O=C(Nc1ccc(C#CC2CC2)cc1C(=O)O)c1ccc(Cl)c(Cl)c1 [Compound 16, 5-(2-cyclopropylethynyl)-2-[(3,4-dichlorobenzoyl)amino]benzoic Acid]
- fraction unbound at 4 h, 10 µM (plasma proteins): 0.0006
- solubility at 24 h (Solubility in PBS pH 7.4): > 200 µM
- effect on intrabacterial pH [6]: dose-dependent decrease in the intrabacterial pH
- effect of pH on potency (H37Rv [7]): decreasing pH improved the potency
- solubility [5]: > 300 µM
- MIC90 ([2]; 168 h): 100 µM (≈ 37.4 µg/mL)
- transcriptional response (H37Rv [8]): downregulation of genes implicated in DNA replication, transcription, translation and growth
- IC50 (MabA [3]): 60 µM
- effect on mycolic acids synthesis (TLC) (M. tuberculosis H37Rv): no specific inhibition of mycolic acids

SMILES: O=C(O)c1cc(Br)ccc1NC(=S)c1ccc(Cl)c(Cl)c1 [Compound 6, 5-bromo-2-[(3,4-dichlorobenzenecarbothioyl)amino]benzoic Acid]
- IC50 (MabA [3]): 39 µM

SMILES: O=C(O)c1cc(Br)ccc1C(=O)Nc1ccc(Cl)c(Cl)c1 [Compound 5, 5-bromo-2-[(3,4-dichlorophenyl)carbamoyl]benzoic Acid]
- IC50 (MabA [3]): 268 µM

SMILES: O=C(Nc1ccc(I)cc1CO)c1ccc(Cl)c(Cl)c1 [Compound 8, 3,4-dichloro-N-[2-(hydroxymethyl)-4-iodo-phenyl]benzamide]
- IC50 (MabA [3]): > 333 µM

SMILES: O=C(Nc1ccccc1C(=O)O)c1ccc(Cl)c(Cl)c1 [Compound 15, 2-[(3,4-dichlorobenzoyl)amino]benzoic Acid]
- IC50 (MabA [3]): > 1000 µM

SMILES: O=C(O)c1cc(Br)ccc1-c1nc(-c2ccc(Cl)c(Cl)c2)no1 [Compound 7, 5-bromo-2-[3-(3,4-dichlorophenyl)-1,2,4-oxadiazol-5-yl]benzoic Acid]
- IC50 (MabA [3]): 102 µM

SMILES: N#Cc1cc(I)ccc1NC(=O)c1ccc(Cl)c(Cl)c1 [Compound 10, 3,4-dichloro-N-(2-cyano-4-iodo-phenyl)benzamide]
- IC50 (MabA [3]): > 1000 µM

SMILES: O=C(O)c1cc(I)ccc1NS(=O)(=O)c1ccc(Cl)c(Cl)c1 [Compound 4, 2-[(3,4-dichlorophenyl)sulfonylamino]-5-iodo-benzoic Acid]
- IC50 (MabA [3]): 40 µM

SMILES: C#Cc1ccc(C(=O)O)c(NC(=O)c2ccc(Cl)c(Cl)c2)c1 [Compound 17, 2-[(3,4-dichlorobenzoyl)amino]-4-ethynyl-benzoic Acid]
- fold reduction in potency (MabA [3]): 2 fold
- IC50 (MabA [3]): 77 µM

SMILES: O=C(Nc1nc2ccccc2cc1C(=O)O)c1ccc(Cl)c(Cl)c1 [Compound 20, 2-[(3,4-dichlorobenzoyl)amino]quinoline-3-carboxylic Acid]
- fold reduction in potency (MabA [3]): 2 fold
- IC50 (MabA [3]): 76 µM

SMILES: NNC(=O)c1ccncc1 [isoniazid, reference compound]
- MIC ([2]; 168 h): 0.125 µg/mL (≈ 0.911 µM)
- effect on mycolic acids synthesis (TLC) (M. tuberculosis H37Rv): decrease in mycolic acids synthesis

SMILES: CO[C@H]1/C=C/O[C@@]2(C)Oc3c(C)c(O)c4c(O)c(c(/C=N/N5CCN(C)CC5)c(O)c4c3C2=O)NC(=O)/C(C)=C\C=C\[C@H](C)[C@H](O)[C@@H](C)[C@@H](O)[C@@H](C)[C@H](OC(C)=O)[C@@H]1C [rifampicine, reference compound]
- MIC ([2]; 168 h): 0.004 µg/mL (≈ 0.00486 µM)
